Assay results as given in US9144229B2, “Tissue specific expression of antibodies in chickens” (Synageva BioPharma Corp., priority 2002, dated 2015).

System: chicken embryonic stem cells
Test: Titration kill curve of chicken ES cells under puromycin or neomycin selection
Assay type: cell-based
Parameters: key to Morphology of cES cells: ES cells are present.; ES cells are differentiated.; gone: no morphologically recognizable cells are present
Procedure: In a preferred embodiment, the concentration of puromycin required for selecting transfected cells is calculated as a titration kill curve. Titration kill curves for chicken embryonic stem cells are established by exposing cells in culture to puromycin concentrations varying from 0.0 to 1.0 μg/ml for 10 days (Table 7) and neomycin concentrations varying from 0.0 to 200 μg/ml (Table 8). The medium is changed every 2 days and fresh puromycin or neomycin is added. […] Puromycin concentrations of 0.3-1.0 μg/ml are used for selection of the transfected cultures. Neomycin concentrations over 40 μg/ml eliminated all cES cells within 7 days (Table 8).

neomycin
Dead/: Morphology of cES cells (neomycin 50 μg/ml, day 7)
ES/diff: Morphology of cES cells (neomycin 30 μg/ml, day 8)
ES/Diff: Morphology of cES cells (neomycin 30 μg/ml, day 7) | Morphology of cES cells (neomycin 40 μg/ml, day 5) | Morphology of cES cells (neomycin 50 μg/ml, day 4) | Morphology of cES cells (neomycin 50 μg/ml, day 5) | Morphology of cES cells (neomycin 100 μg/ml, day 1)
Diff: Morphology of cES cells (neomycin 30 μg/ml, day 9) | Morphology of cES cells (neomycin 100 μg/ml, day 2)
over 40 μg/ml: concentration that eliminated all cES cells (neomycin, within 7 days)
ES: Morphology of cES cells (neomycin 10 μg/ml, day 1) | Morphology of cES cells (neomycin 10 μg/ml, day 2) | Morphology of cES cells (neomycin 10 μg/ml, day 3) | Morphology of cES cells (neomycin 10 μg/ml, day 4) | Morphology of cES cells (neomycin 10 μg/ml, day 5) | Morphology of cES cells (neomycin 10 μg/ml, day 6) | Morphology of cES cells (neomycin 10 μg/ml, day 7) | Morphology of cES cells (neomycin 10 μg/ml, day 8) | Morphology of cES cells (neomycin 10 μg/ml, day 9) | Morphology of cES cells (neomycin 10 μg/ml, day 10) | Morphology of cES cells (neomycin 20 μg/ml, day 1) | Morphology of cES cells (neomycin 20 μg/ml, day 2) | Morphology of cES cells (neomycin 20 μg/ml, day 3) | Morphology of cES cells (neomycin 20 μg/ml, day 4) | Morphology of cES cells (neomycin 20 μg/ml, day 5) | Morphology of cES cells (neomycin 20 μg/ml, day 6) | Morphology of cES cells (neomycin 20 μg/ml, day 7) | Morphology of cES cells (neomycin 20 μg/ml, day 8) | Morphology of cES cells (neomycin 20 μg/ml, day 9) | Morphology of cES cells (neomycin 20 μg/ml, day 10) | Morphology of cES cells (neomycin 30 μg/ml, day 1) | Morphology of cES cells (neomycin 30 μg/ml, day 2) | Morphology of cES cells (neomycin 30 μg/ml, day 3) | Morphology of cES cells (neomycin 30 μg/ml, day 4) | Morphology of cES cells (neomycin 30 μg/ml, day 5) | Morphology of cES cells (neomycin 30 μg/ml, day 6) | Morphology of cES cells (neomycin 40 μg/ml, day 1) | Morphology of cES cells (neomycin 40 μg/ml, day 2) | Morphology of cES cells (neomycin 40 μg/ml, day 3) | Morphology of cES cells (neomycin 40 μg/ml, day 4) | Morphology of cES cells (neomycin 50 μg/ml, day 1) | Morphology of cES cells (neomycin 50 μg/ml, day 2) | Morphology of cES cells (neomycin 50 μg/ml, day 3) | Morphology of cES cells (neomycin 60 μg/ml, day 1) | Morphology of cES cells (neomycin 60 μg/ml, day 2) | Morphology of cES cells (neomycin 60 μg/ml, day 3)
dead: Morphology of cES cells (neomycin 40 μg/ml, day 7) | Morphology of cES cells (neomycin 100 μg/ml, day 3) | Morphology of cES cells (neomycin 150 μg/ml, day 2) | Morphology of cES cells (neomycin 150 μg/ml, day 3) | Morphology of cES cells (neomycin 200 μg/ml, day 2)
gone: Morphology of cES cells (neomycin 40 μg/ml, day 8) | Morphology of cES cells (neomycin 40 μg/ml, day 9) | Morphology of cES cells (neomycin 40 μg/ml, day 10) | Morphology of cES cells (neomycin 50 μg/ml, day 8) | Morphology of cES cells (neomycin 50 μg/ml, day 9) | Morphology of cES cells (neomycin 50 μg/ml, day 10) | Morphology of cES cells (neomycin 60 μg/ml, day 4) | Morphology of cES cells (neomycin 60 μg/ml, day 5) | Morphology of cES cells (neomycin 60 μg/ml, day 6) | Morphology of cES cells (neomycin 60 μg/ml, day 7) | Morphology of cES cells (neomycin 60 μg/ml, day 8) | Morphology of cES cells (neomycin 60 μg/ml, day 9) | Morphology of cES cells (neomycin 60 μg/ml, day 10) | Morphology of cES cells (neomycin 100 μg/ml, day 4) | Morphology of cES cells (neomycin 100 μg/ml, day 5) | Morphology of cES cells (neomycin 100 μg/ml, day 6) | Morphology of cES cells (neomycin 100 μg/ml, day 7) | Morphology of cES cells (neomycin 100 μg/ml, day 8) | Morphology of cES cells (neomycin 100 μg/ml, day 9) | Morphology of cES cells (neomycin 100 μg/ml, day 10) | Morphology of cES cells (neomycin 150 μg/ml, day 4) | Morphology of cES cells (neomycin 150 μg/ml, day 5) | Morphology of cES cells (neomycin 150 μg/ml, day 6) | Morphology of cES cells (neomycin 150 μg/ml, day 7) | Morphology of cES cells (neomycin 150 μg/ml, day 8) | Morphology of cES cells (neomycin 150 μg/ml, day 9) | Morphology of cES cells (neomycin 150 μg/ml, day 10) | Morphology of cES cells (neomycin 200 μg/ml, day 3) | Morphology of cES cells (neomycin 200 μg/ml, day 4) | Morphology of cES cells (neomycin 200 μg/ml, day 5) | Morphology of cES cells (neomycin 200 μg/ml, day 6) | Morphology of cES cells (neomycin 200 μg/ml, day 7) | Morphology of cES cells (neomycin 200 μg/ml, day 8) | Morphology of cES cells (neomycin 200 μg/ml, day 9) | Morphology of cES cells (neomycin 200 μg/ml, day 10)
Diff/: Morphology of cES cells (neomycin 30 μg/ml, day 10) | Morphology of cES cells (neomycin 40 μg/ml, day 6) | Morphology of cES cells (neomycin 50 μg/ml, day 6)
